Source: US20100143383A1, “OXGR1 AGONISTS FOR USE IN THERAPIES FOR METABOLIC DISORDERS” (priority 2008, published 2010)

What was measured:
recombinant mouse OXGR1 = recombinant mouse OXGR1 (Mus musculus, UniProt Q6IYF8); conditions: Nature 429:188-193, 2004, read-out: EC50 for activation of OXGR1; cited from earlier work
isolated mouse islets = experiment: glucose-stimulated insulin secretion (GSIS/GDIS) in isolated mouse islets, insulin by ELISA; assay type: cell-based; conditions: WT C57BL/6J mouse islets, 60 min, FIG. 3
Description: Pancreatic islets of Langerhans were isolated from the pancreata of wild type (WT) C57BL/6J mice (Taconic Farm, N.Y.) by collagenase digestion and discontinuous Ficoll gradient separation, a modification of the original method of Lacy and Kostianovsky (Lacy P E, Kostianovsky M: Diabetes 16:35-39, 1967). The islets were cultured overnight in RPMI 1640 medium (11 mM glucose) before GDIS assay.
To measure GSIS, islets were first preincubated for 30 min in the Krebs-Ringer bicarbonate (KRB) buffer with 2 mM glucose (in petri dishes). The KRB medium contains 143.5 mM Na+, 5.8 mM K+, 2.5 mM Ca2+, 1.2 mM Mg2+, 124.1 mM Cl−, 1.2 mM PO43−, 1.2 mM […], 25 mM CO32−2 mg/ml bovine serum albumin (pH 7.4). The islets were then transferred to a 96-well plate (one islet/well) and incubated at 37° C. for 60 min in 200 μl of KRB buffer with 2 or 16 mM glucose, and other agents to be tested such as GLP-1 included as a control. (Zhou Y P, et al: J Biol Chem 278:51316-51323, 2003). Insulin was measured in aliquots of the incubation buffer by ELISA with a commercial kit (ALPCO Diagnostics, Windham, N.H.).
The compound had no effects on the basal insulin secretion at 2 mM glucose (G2).

recombinant human OXGR1 = recombinant human OXGR1 (Homo sapiens, UniProt Q96P68); conditions: Nature 429:188-193, 2004, read-out: EC50 for activation of OXGR1; cited from earlier work
recombinant human OXGR1, sequence (Q96P68 whole entry): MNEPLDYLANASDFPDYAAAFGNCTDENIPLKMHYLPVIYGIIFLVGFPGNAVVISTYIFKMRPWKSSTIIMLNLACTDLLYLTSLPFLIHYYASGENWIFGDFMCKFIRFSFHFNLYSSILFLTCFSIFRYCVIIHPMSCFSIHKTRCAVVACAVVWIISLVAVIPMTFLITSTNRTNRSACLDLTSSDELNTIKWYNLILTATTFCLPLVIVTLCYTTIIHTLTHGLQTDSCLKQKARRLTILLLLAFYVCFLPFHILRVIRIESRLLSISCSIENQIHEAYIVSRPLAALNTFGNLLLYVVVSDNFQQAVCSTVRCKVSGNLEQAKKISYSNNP

recombinant mouse OXGR1, sequence (Q6IYF8 whole entry): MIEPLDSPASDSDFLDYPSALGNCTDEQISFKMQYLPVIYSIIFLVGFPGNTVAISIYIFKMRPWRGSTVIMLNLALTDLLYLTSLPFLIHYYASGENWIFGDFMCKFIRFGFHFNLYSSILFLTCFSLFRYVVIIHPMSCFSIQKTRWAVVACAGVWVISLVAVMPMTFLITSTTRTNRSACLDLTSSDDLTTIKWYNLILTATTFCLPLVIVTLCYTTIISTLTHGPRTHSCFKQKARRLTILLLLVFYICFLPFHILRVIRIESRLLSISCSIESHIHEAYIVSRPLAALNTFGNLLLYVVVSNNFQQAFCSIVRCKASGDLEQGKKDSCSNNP

## O=C(O)CCC(=O)C(=O)O [α-KG, α-ketoglutarate]
Recombinant mouse OXGR1
  EC50: 70 µM
Isolated mouse islets; 2 mM glucose
  effect on basal insulin secretion at 2 mM glucose (G2): no effects
Isolated mouse islets; 16 mM glucose
  effect on 16 mM glucose (G16) stimulated insulin secretion: dose-dependently enhanced
Recombinant human OXGR1
  EC50: 70 µM
